Where only a bound is given, the exact number is not on record here.

For test [1], the system named is ERK1/2 phosphorylation of p90RSK in HT29 cells. The experiment in a line: pRSK MSD Assay in HT29 cells. As to conditions: Homo sapiens, HT-29, read-out: ERK1/ERK2 PRSK MSD HT29 EC50. The format is cell-based. In short, it runs like this: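 Serum-starved HT29 cells (0.1% FBS overnight) treated with test compound for 120 min at 37° C, then lysed with protease and phosphatase inhibitors. Phospho-p90RSK quantified by MSD sandwich immunoassay: RSK capture antibody, phospho-RSK detection antibody plus Sulfo-tagged antibody, electrochemiluminescence read.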

The subject of test [2] is ERK1/2 phosphorylation of p90RSK in A375 cells. The experiment in a line: Detection of total and phosphor-RSK by MSD ELISA (A375). The format is cell-based. The conditions noted are these: Homo sapiens, A-375, read-out: ERK1/ERK2 PRSK A375 EC50. In short, it runs like this:
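A375 cells serum-starved overnight in DMEM/0.1% FBS, then treated 2 h at 37° C with compound (1000× DMSO dilutions into medium). Lysates captured on RSK antibody-coated MSD plates; phospho-RSK (Ser380) and total RSK detected with SulfoTag secondary antibodies by electrochemiluminescence.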

For `C=CC(=O)Nc1cc(C)c(F)cc1Nc1nc(Nc2cc(OC)ncc2C)ncc1C(F)(F)F` [Compound I-366, N-(4-fluoro-2-((2-((2-methoxy-5-methylpyridin-4-yl)amino)-5-(trifluoromethyl)pyrimidin-4-yl)amino)-5-methylphenyl)acrylamide], the EC50 in test [1] and in test [2] was greater than 1000 nM each time.
Take `C=CC(=O)Nc1cc(C)ccc1Nc1nc(NC2COC2)ncc1C(F)(F)F` [Compound I-420, N-(5-methyl-2-((2-(oxetan-3-ylamino)-5-(trifluoromethyl)pyrimidin-4-yl)amino)phenyl)acrylamide]: the EC50 in test [1] and in test [2] was greater than 1000 nM each time.
With `C=CC(=O)Nc1cc(CN2CCN(C)CC2)ccc1Nc1nc(Nc2nc(OC)ncc2C)ncc1C(F)(F)F` [Compound I-394, N-(2-((2-((2-methoxy-5-methylpyrimidin-4-yl)amino)-5-(trifluoromethyl)pyrimidin-4-yl)amino)-5-((4-methylpiperazin-1-yl)methyl)phenyl)acrylamide], the figures for the EC50 in test [1] and in test [2] were 501 to 999 nM and greater than 1000 nM, respectively.
As to `C=CC(=O)Nc1cc(C)ccc1Nc1nc(Nc2cc(OCCO)ncc2C)ncc1C(F)(F)F` [Compound I-376, N-(2-((2-((2-(2-hydroxyethoxy)-5-methylpyridin-4-yl)amino)-5-(trifluoromethyl)pyrimidin-4-yl)amino)-5-methylphenyl)acrylamide], the EC50 in test [1] and in test [2] was less than 100 nM throughout.
Turning to `C=CC(=O)Nc1cc(C)ccc1Nc1nc(Nc2cc(-c3nc[nH]n3)ccc2C)ncc1C(F)(F)F` [Compound I-373, N-(5-methyl-2-((2-((2-methyl-5-(1H-1,2,4-triazol-3-yl)phenyl)amino)-5-(trifluoromethyl)pyrimidin-4-yl)amino)phenyl)acrylamide], the EC50 in test [1] is 101 to 500 nM; in test [2], 501 to 999 nM.
On the same counts, the results for `C=CC(=O)Nc1cc(CN2CCN(C(=O)c3cnccn3)CC2)ccc1Nc1nc(Nc2cc(OC)ncc2C)ncc1C(F)(F)F` [Compound I-390, N-(2-((2-((2-methoxy-5-methylpyridin-4-yl)amino)-5-(trifluoromethyl)pyrimidin-4-yl)amino)-5-((4-(pyrazine-2-carbonyl)piperazin-1-yl)methyl)phenyl)acrylamide] are less than 100 nM and less than 100 nM.
Turning to `C=CC(=O)Nc1cc(C)ccc1Nc1nc(Nc2nc(OC)ncc2F)ncc1C(F)(F)F` [Compound I-357, N-(2-((2-((5-fluoro-2-methoxypyrimidin-4-yl)amino)-5-(trifluoromethyl)pyrimidin-4-yl)amino)-5-methylphenyl)acrylamide], the EC50 in test [1] and in test [2] was 101 to 500 nM each time.
As to `C=CC(=O)Nc1cc(CN2CCN(S(C)(=O)=O)CC2)ccc1Nc1nc(Nc2cc(OC)ncc2C)ncc1C(F)(F)F` [Compound I-384, N-(2-((2-((2-methoxy-5-methylpyridin-4-yl)amino)-5-(trifluoromethyl)pyrimidin-4-yl)amino)-5-((4-(methylsulfonyl)piperazin-1-yl)methyl)phenyl)acrylamide], the EC50 in test [1] and in test [2] was less than 100 nM each time.
In the case of `C=CC(=O)Nc1cc(OCC(N)=O)ccc1Nc1nc(Nc2cc(OC)ncc2C)ncc1C(F)(F)F` [Compound I-398, N-(5-(2-amino-2-oxoethoxy)-2-((2-((2-methoxy-5-methylpyridin-4-yl)amino)-5-(trifluoromethyl)pyrimidin-4-yl)amino)phenyl)acrylamide], the EC50 in test [1] and in test [2] was less than 100 nM in each case.
For the compound `C=CC(=O)Nc1cc(OCCN)ccc1Nc1nc(Nc2cc(OC)ncc2C)ncc1C(F)(F)F` [Compound I-396, N-(5-(2-aminoethoxy)-2-((2-((2-methoxy-5-methylpyridin-4-yl)amino)-5-(trifluoromethyl)pyrimidin-4-yl)amino)phenyl)acrylamide], the EC50 in test [1] and in test [2] was 101 to 500 nM throughout.
On to `C=CC(=O)Nc1cc(O[C@@H](C)C(=O)N2CCN(C(C)=O)CC2)ccc1Nc1nc(Nc2cc(OC)ncc2C)ncc1C(F)(F)F` [Compound I-425, (S)—N-(5-((1-(4-acetylpiperazin-1-yl)-1-oxopropan-2-yl)oxy)-2-((2-((2-methoxy-5-methylpyridin-4-yl)amino)-5-(trifluoromethyl)pyrimidin-4-yl)amino)phenyl)acrylamide], for which the EC50 in test [1] lay in the range of 101 to 500 nM; in test [2] it was 501 to 999 nM.
The corresponding values for `C=CC(=O)Nc1c(Nc2nc(Nc3cc(OC)ncc3C)ncc2OC)cccc1OCc1nccs1` [Compound I-411, N-(2-((5-methoxy-2-((2-methoxy-5-methylpyridin-4-yl)amino)pyrimidin-4-yl)amino)-6-(thiazol-2-ylmethoxy)phenyl)acrylamide] are greater than 1000 nM and greater than 1000 nM.
Turning to `C#CC(=O)Nc1cc(C)ccc1Nc1nc(Nc2cc(OC)ncc2C)ncc1C(F)(F)F` [Compound I-345, N-(2-((2-((2-methoxy-5-methylpyridin-4-yl)amino)-5-(trifluoromethyl)pyrimidin-4-yl)amino)-5-methylphenyl)propiolamide], the EC50 in test [1] and in test [2] was greater than 1000 nM in each case.
Take `C=CC(=O)Nc1cc(CN2CCN(C(C)=O)CC2)ccc1Nc1nc(Nc2cc(OC)ncc2C)ncc1C(F)(F)F` [Compound I-381, N-(5-((4-acetylpiperazin-1-yl)methyl)-2-((2-((2-methoxy-5-methylpyridin-4-yl)amino)-5-(trifluoromethyl)pyrimidin-4-yl)amino)phenyl)acrylamide]: the EC50 in test [1] and in test [2] was less than 100 nM throughout.
Regarding `C=CC(=O)Nc1cc(C)ccc1Nc1nc(Nc2nc(OC)ncc2OC)ncc1C(F)(F)F` [Compound I-349, N-(2-((2-((2,5-dimethoxypyrimidin-4-yl)amino)-5-(trifluoromethyl)pyrimidin-4-yl)amino)-5-methylphenyl)acrylamide], the EC50 in test [1] and in test [2] was 101 to 500 nM in each case.
With `C=CC(=O)Nc1cc(C)ccc1Nc1nc(Nc2cc(C(N)=O)nn2C)ncc1C(F)(F)F` [Compound I-423, 5-((4-((2-acrylamido-4-methylphenyl)amino)-5-(trifluoromethyl)pyrimidin-2-yl)amino)-1-methyl-1H-pyrazole-3-carboxamide], the EC50 in test [1] and in test [2] was greater than 1000 nM each time.
On to `C=CC(=O)Nc1cc(C)ccc1Nc1nc(Nc2cc(OC)nc(N3CCN(C(C)=O)CC3)c2)ncc1C(F)(F)F` [Compound I-93, N-(2-((2-((2-(4-Acetylpiperazin-1-yl)-6-methoxypyridin-4-yl)amino)-5-(trifluoromethyl)pyrimidin-4-yl)amino)-5-methylphenyl)acrylamide], for which the EC50 in test [1] and in test [2] was less than 100 nM each time.
Turning to `C=CC(=O)Nc1cc(C)ccc1Nc1nc(Nc2ccnc3ccccc23)ncc1C(F)(F)F` [Compound I-379, N-(5-methyl-2-((2-(quinolin-4-ylamino)-5-(trifluoromethyl)pyrimidin-4-yl)amino)phenyl)acrylamide], the EC50 in test [1] and in test [2] was less than 100 nM each time.
For the compound `C=CC(=O)Nc1cc(C)ccc1Nc1nc(Nc2ncc(C(F)(F)F)c(OC)n2)ncc1C(F)(F)F` [Compound I-354, N-(2-((2-((4-methoxy-5-(trifluoromethyl)pyrimidin-2-yl)amino)-5-(trifluoromethyl)pyrimidin-4-yl)amino)-5-methylphenyl)acrylamide], the EC50 in test [1] and in test [2] was 101 to 500 nM in each case.
Consider `C=CC(=O)Nc1cc(C)ccc1Nc1nc(Nc2cc(OC)nnc2OC)ncc1C(F)(F)F` [Compound I-372, N-(2-((2-((3,6-dimethoxypyridazin-4-yl)amino)-5-(trifluoromethyl)pyrimidin-4-yl)amino)-5-methylphenyl)acrylamide], for which the figures for the EC50 in test [1] and in test [2] were less than 100 nM and 101 to 500 nM, respectively.
On the same counts, the results for `C=CC(=O)Nc1c(Nc2nc(Nc3cc(OC)ncc3C)ncc2C(F)(F)F)ccc(C)c1F` [Compound I-367, N-(2-fluoro-6-((2-((2-methoxy-5-methylpyridin-4-yl)amino)-5-(trifluoromethyl)pyrimidin-4-yl)amino)-3-methylphenyl)acrylamide] are 101 to 500 nM and 101 to 500 nM.
On the same counts, the results for `C=CC(=O)Nc1cc(C)ccc1Nc1nc(Nc2ncc(F)c(OC)n2)ncc1C(F)(F)F` [Compound I-356, N-(2-((2-((5-fluoro-4-methoxypyrimidin-2-yl)amino)-5-(trifluoromethyl)pyrimidin-4-yl)amino)-5-methylphenyl)acrylamide] are 101 to 500 nM and 101 to 500 nM.
The corresponding values for `C=CC(=O)Nc1cc(CN2CCOCC2)ccc1Nc1nc(Nc2cc(OC)ncc2C)ncc1C(F)(F)F` [Compound I-399, N-(2-((2-((2-methoxy-5-methylpyridin-4-yl)amino)-5-(trifluoromethyl)pyrimidin-4-yl)amino)-5-(morpholinomethyl)phenyl)acrylamide] are 501 to 999 nM and 501 to 999 nM.
For the compound `C=CC(=O)Nc1cc(O[C@H](C)C(N)=O)ccc1Nc1nc(Nc2cc(OC)ncc2C)ncc1C(F)(F)F` [Compound I-413, (R)—N-(5-((1-amino-1-oxopropan-2-yl)oxy)-2-((2-((2-methoxy-5-methylpyridin-4-yl)amino)-5-(trifluoromethyl)pyrimidin-4-yl)amino)phenyl)acrylamide], the EC50 in test [1] and in test [2] was less than 100 nM each time.

The record behind these values is patent publication US9561228B2 (Celgene Avilomics Research, Inc., priority 2013, dated 2017).
